Experimental data published in patent US8921267B2, “Safening 6-(trisubstituted phenyl)-4-amino-2-pyridinecarboxylate herbicide injury on cereal crops” (Dow AgroSciences LLC, priority 2008, dated 2014).

Experiments:
[1] = tested on: purple deadnettle (Lamium purpureum L; LAMPU); experiment: Postemergence herbicidal activity, greenhouse, visual injury: purple deadnettle; format: in vivo; design: key: visual injury, 0–100%: 0 = no injury, 100 = complete kill
Experimental: (§1) Evaluation of Postemergence Herbicidal Safening in Cereal Crops
(§2) Seeds of the desired test plant species were planted in Sun Gro MetroMix® 306 planting mixture, which typically has a pH of 6.0 to 6.8 and an organic matter content of about 30 percent, in plastic pots with a surface area of 103.2 square centimeters (cm^2). When required to ensure good germination and healthy plants, a fungicide treatment and/or other chemical or physical treatment was applied. The plants were grown for 7-36 days (d) in a greenhouse with an approximate 14-hour (h) photoperiod which was maintained at about 18° C. during the day and 17° C. during the night. Nutrients and water were added on a regular basis and supplemental lighting was provided with overhead metal halide 1000-Watt lamps as necessary. The plants were employed for testing when they reached the second or third true leaf stage.
(§3) Weighed amounts of esters (methyl) or salts (TEA [triethylammonium], K [potassium]) of 4-amino-3-chloro-6-(4-chloro-2-fluoro-3-methoxyphenyl)pyridine-2-carboxylic acid (Compound 1) were dissolved in a volume of 97:3 volume/volume (v/v) acetone/dimethylsulfoxide (DMSO) to obtain stock solutions. […] The concentrated stock solutions were diluted with an aqueous mixture of 1.5% v/v of Agri-dex crop oil concentrate to provide the appropriate application rates. Compound requirements are based upon a 12 mL application volume at a rate of 187 liters per hectare (L/ha). Stocks solutions of the safeners were prepared following the same procedure. Spray solutions of the safeners and experimental compound mixtures were prepared by adding the stock solutions to the appropriate amount of dilution solution to form a 12 mL spray solution with active ingredients in two-way combinations. Formulated compounds were applied to the plant material with an overhead Mandel track sprayer equipped with 8002E nozzles calibrated to deliver 187 L/ha over an application area of 0.503 square meters (m^2) at a spray height of 18 inches (43 centimeters (cm)) above average plant canopy. Control plants were sprayed in the same manner with the solvent blank.
(§4) The treated plants and control plants were placed in a greenhouse as described above and watered by sub-irrigation to prevent wash-off of the test compounds. After 20-22 d, the condition of the test plants as compared with that of the control plants was determined visually and scored on a scale of 0 to 100 percent where 0 corresponds to no injury and 100 corresponds to complete kill.
(§5) Colby's equation was used to determine the herbicidal effects expected from the mixtures (Colby, S. R. Calculation of the synergistic and antagonistic response of herbicide combinations. Weeds 1967, 15, 20-22.).
(§6) The following equation was used to calculate the expected activity of mixtures containing two active ingredients, A and B: Expected=A+B−(A×B/100)
(§7) A=observed efficacy of active ingredient A at the same concentration as used in the mixture.
(§8) B=observed efficacy of active ingredient B at the same concentration as used in the mixture.

[2] = tested on: Russian thistle (Salsola iberica L; SASKR); experiment: Postemergence herbicidal activity, greenhouse, visual injury: Russian thistle; format: in vivo; design: key: visual injury, 0–100%: 0 = no injury, 100 = complete kill
Experimental: as §1, §2, §3, §4, §5, §6, §7, §8

[3] = tested on: cleavers (Galium aparine L; GALAP); experiment: Postemergence herbicidal activity, greenhouse, visual injury: cleavers; format: in vivo; design: key: visual injury, 0–100%: 0 = no injury, 100 = complete kill
Experimental: as §1, §2, §3, §4, §5, §6, §7, §8

[4] = tested on: corn poppy (Papaver rhoeas L; PAPRH); experiment: Postemergence herbicidal activity, greenhouse, visual injury: corn poppy; format: in vivo
Experimental: as §1, §2, §3, §4, §5, §6, §7, §8

[5] = tested on: barley (HORVW); experiment: Postemergence herbicidal safening, greenhouse, visual injury: barley (HORVW)
[6] = tested on: durum wheat (Triticum durum L; TRZDU); experiment: Postemergence herbicidal safening, greenhouse, visual injury: durum wheat; format: in vivo
Experimental: as §1, §2, §3, §4, §5, §6, §7, §8

[7] = tested on: wheat (Triticum aestivum L; TRZAS); experiment: Postemergence herbicidal safening, greenhouse, visual injury: wheat; format: in vivo
Experimental: as §1, §2, §3, §4, §5, §6, §7, §8

[8] = tested on: wild pansy (Viola tricolor L; VIOTR); experiment: Postemergence herbicidal activity, greenhouse, visual injury: wild pansy; format: in vivo; design: key: visual injury, 0–100%: 0 = no injury, 100 = complete kill
Experimental: as §1, §2, §3, §4, §5, §6, §7, §8

[9] = tested on: chickweed (Stellaria media L; STEME); experiment: Postemergence herbicidal activity, greenhouse, visual injury: chickweed; format: in vivo; design: key: visual injury, 0–100%: 0 = no injury, 100 = complete kill
Experimental: as §1, §2, §3, §4, §5, §6, §7, §8

[10] = tested on: barley (Hordeum vulgare L; HORVS); experiment: Postemergence herbicidal safening, greenhouse, visual injury: barley; format: in vivo
Experimental: as §1, §2, §3, §4, §5, §6, §7, §8

[11] = tested on: bird's-eye speedwell (Veronica persica L; VERPE); experiment: Postemergence herbicidal activity, greenhouse, visual injury: bird's-eye speedwell; format: in vivo; design: key: visual injury, 0–100%: 0 = no injury, 100 = complete kill
Experimental: as §1, §2, §3, §4, §5, §6, §7, §8

[12] = tested on: wheat (Triticum aestivum L; TRZAW); experiment: Postemergence herbicidal safening, greenhouse, visual injury: wheat (TRZAW); format: in vivo
Experimental: as §1, §2, §3, §4, §5, §6, §7, §8

[13] = tested on: wild buckwheat (Polygonum convolvulus L; POLCO); experiment: Postemergence herbicidal activity, greenhouse, visual injury: wild buckwheat; format: in vivo
Experimental: as §1, §2, §3, §4, §5, §6, §7, §8

NC(=O)NS(=O)(=O)c1ccccc1Cl [Compound 2-CBSU, N-(aminocarbonyl)-2-chlorobenzenesulfonamide, reference compound]
0: LAMPU Ob (Observed values) ([1]; safener 4.4 g/ha alone) | LAMPU Ob (Observed values) ([1]; safener 8.8 g/ha alone) | LAMPU Ob (Observed values) ([1]; safener 17.5 g/ha alone) | LAMPU Ob (Observed values) ([1]; safener 35 g/ha alone) | PAPRH Ob (Observed values) ([4]; safener 4.4 g/ha alone) | PAPRH Ob (Observed values) ([4]; safener 8.8 g/ha alone) | PAPRH Ob (Observed values) ([4]; safener 17.5 g/ha alone) | PAPRH Ob (Observed values) ([4]; safener 35 g/ha alone)
0%: SASKR Ob ([2]; applied alone at 17.5 g/ha) | SASKR Ob ([2]; applied alone at 35 g/ha) | SASKR Ob ([2]; applied alone at 70 g/ha) | SASKR Ob ([2]; applied alone at 140 g/ha) | GALAP Ob ([3]; applied alone at 17.5 g/ha) | GALAP Ob ([3]; applied alone at 35 g/ha) | GALAP Ob ([3]; applied alone at 70 g/ha) | GALAP Ob ([3]; applied alone at 140 g/ha) | PAPRH Ob ([4]; applied alone at 17.5 g/ha) | PAPRH Ob ([4]; applied alone at 35 g/ha) | PAPRH Ob ([4]; applied alone at 70 g/ha) | PAPRH Ob ([4]; applied alone at 140 g/ha) | HORVW Ob (Observed values) ([5]; safener 4.4 g/ha alone) | HORVW Ob (Observed values) ([5]; safener 8.8 g/ha alone) | HORVW Ob (Observed values) ([5]; safener 17.5 g/ha alone) | HORVW Ob (Observed values) ([5]; safener 35 g/ha alone) | TRZDU Ob (Observed values) ([6]; safener 4.4 g/ha alone) | TRZDU Ob (Observed values) ([6]; safener 8.8 g/ha alone) | TRZDU Ob (Observed values) ([6]; safener 17.5 g/ha alone) | TRZDU Ob (Observed values) ([6]; safener 35 g/ha alone) | TRZAS Ob ([7]; applied alone at 17.5 g/ha) | TRZAS Ob ([7]; applied alone at 35 g/ha) | TRZAS Ob ([7]; applied alone at 70 g/ha) | TRZAS Ob ([7]; applied alone at 140 g/ha) | VIOTR Ob ([8]; applied alone at 17.5 g/ha) | VIOTR Ob ([8]; applied alone at 35 g/ha) | VIOTR Ob ([8]; applied alone at 70 g/ha) | VIOTR Ob ([8]; applied alone at 140 g/ha) | STEME Ob ([9]; applied alone at 17.5 g/ha) | STEME Ob ([9]; applied alone at 35 g/ha) | STEME Ob ([9]; applied alone at 70 g/ha) | STEME Ob ([9]; applied alone at 140 g/ha) | HORVS Ob ([10]; applied alone at 17.5 g/ha) | HORVS Ob ([10]; applied alone at 35 g/ha) | HORVS Ob ([10]; applied alone at 70 g/ha) | HORVS Ob ([10]; applied alone at 140 g/ha) | VERPE Ob ([11]; applied alone at 17.5 g/ha) | VERPE Ob ([11]; applied alone at 35 g/ha) | VERPE Ob ([11]; applied alone at 70 g/ha) | VERPE Ob ([11]; applied alone at 140 g/ha) | TRZAW Ob (Observed values) ([12]; safener 4.4 g/ha alone) | TRZAW Ob (Observed values) ([12]; safener 8.8 g/ha alone) | TRZAW Ob (Observed values) ([12]; safener 17.5 g/ha alone) | TRZAW Ob (Observed values) ([12]; safener 35 g/ha alone) | POLCO Ob ([13]; applied alone at 17.5 g/ha) | POLCO Ob ([13]; applied alone at 35 g/ha) | POLCO Ob ([13]; applied alone at 70 g/ha) | POLCO Ob ([13]; applied alone at 140 g/ha)
